Results: patent publication US20220081422A1 (Janssen Biotech, Inc., priority 2019, published 2022)

Assays:
MOLM-13 cells = assay: MOLM-13 cellular assay (CellTiter-Glo cell viability); type: cell-based; conditions: 72 hours exposure, cell viability by CellTiter-Glo
Experimental: In Vitro Assay: MOLM-13 Cellular Assay
MOLM-13 cells were obtained from DSMZ and were maintained in RPMI 1640+Glutamax+25 mM HEPES (Invitrogen, catalog number 72400) supplemented with 10% heat inactivated fetal bovine serum (FBS; Invitrogen, catalog number 16140). The day prior to assay set-up, cells were pelleted, resuspended in fresh media, counted, and cells were plated at 0.4×10^6 cell/mL in a T150 flask. On the day of the assay, cells were pelleted, resuspend in fresh media, counted and seeded at 5,000 cells/well in white opaque 96-well tissue culture treated microplates (Perkin Elmer, catalog number 6005680). Cells were exposed to different concentrations of test compounds at 37° C., 5% CO2 for 72 hours immediately after seeding. Cell viability was acquired on a Perkin Elmer Envision 2104 multilabel reader using the CellTiter-Glo assay (Promega) according to the manufacturer's instructions.

human DHODH = target: T1, human DHODH (Homo sapiens, UniProt Q02127); assay: DHODH enzymatic assay (DCIP absorbance, end-point); type: biochemical; conditions: purified human DHODH, DCIP as final electron acceptor, end-point mode; read-out: hDHODH IC50
T1 construct: purchased Proteros PR-0044
T1 sequence (Q02127 whole entry): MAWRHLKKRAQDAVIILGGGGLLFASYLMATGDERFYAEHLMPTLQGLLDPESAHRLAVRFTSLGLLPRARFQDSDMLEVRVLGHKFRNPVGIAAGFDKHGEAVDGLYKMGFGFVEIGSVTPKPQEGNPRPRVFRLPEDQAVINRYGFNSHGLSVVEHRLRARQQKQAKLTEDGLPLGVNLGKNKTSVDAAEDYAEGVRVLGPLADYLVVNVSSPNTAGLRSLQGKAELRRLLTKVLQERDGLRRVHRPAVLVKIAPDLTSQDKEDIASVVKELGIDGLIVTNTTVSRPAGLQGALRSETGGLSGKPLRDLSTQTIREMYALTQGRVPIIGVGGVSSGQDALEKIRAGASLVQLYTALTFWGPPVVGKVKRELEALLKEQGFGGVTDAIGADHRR
Experimental: In vitro Assay: DHODH enzymatic assay
To detect DHODH enzyme activities, dichloroindophenol (DCIP) is added as the final electron acceptor in the assay. DCIP can accept electrons from the reduced coenzyme Q generated in the assay, or from dihydroorotate (DHO) via FMN by binding presumably to the ubiquinone pocket. […] The assay buffer contained […], pH 7.5, 150 mM NaCl, 0.5 mM EDTA, and 0.1% Triton X-100 in MilliQ water. Substrate consisting of 20 mM DHO, 5 mM CoQ6, and 1 mM DCIP in assay buffer, initiates the reaction. […] Absorbance measurements were obtained using the BMG Phera Star plate-reading spectrophotometer. Purified human DHODH was purchased from Proteros (cat. No. PR-0044). Chemicals were purchased from Sigma-Aldrich, Teknova, and Avanti Polar Lipids. Liquid handling was performed using Labcyte Echo and Formulatrix Tempest.

Structure (SMILES)	IC50 (MOLM-13 cells; Homo sapiens, MOLM-13, 72 h) [nM]	IC50 (human DHODH) [nM]	IC50 (MOLM-13 cells) [nM]
CCn1c(CO)nn(-c2ccc3c(c2)C(c2ccccc2)CN(c2cccc(F)c2)C3=O)c1=O (racemic) [Example 14, Racemic-6-(4-Ethyl-3-(hydroxymethyl)-5-oxo-4,5-dihydro-1H-1,2,4-triazol-1-yl)-2-(3-fluorophenyl)-4-phenyl-3,4-dihydroisoquinolin-1(2H)-one]	758	1030	–
C=C(C)[C@@H]1CN(c2c(C)cnc(OC)c2C)C(=O)c2cc(F)c(-n3nc(CO)n(CC)c3=O)cc21 (single isomer, unassigned; atropisomer 2) [Example 56, Atropisomer 2, (S*)-6-(4-Ethyl-3-(hydroxymethyl)-5-oxo-4,5-dihydro-1H-1,2,4-triazol-1-yl)-7-fluoro-2-(2-methoxy-3,5-dimethylpyridin-4-yl)-4-(prop-1-en-2-yl)-3,4-dihydroisoquinolin-1(2H)-one]	–	> 100	101
CCn1c(CO)nn(-c2nc3c(cc2F)C(=O)N(c2c(F)cccc2Cl)CN3C(C)C)c1=O [Example 5, 3-(2-Chloro-6-fluorophenyl)-7-(4-ethyl-3-(hydroxymethyl)-5-oxo-4,5-dihydro-1H-1,2,4-triazol-1-yl)-6-fluoro-1-isopropyl-2,3-dihydropyrido[2,3-d]pyrimidin-4(1H)-one]	1.2	1.4	–
CCn1c(CO)nn(-c2cc3c(cc2F)C(=O)N(c2nc(OC)ccc2Cl)CN3C(C)C)c1=O [Example 30, 3-(3-Chloro-6-methoxypyridin-2-yl)-7-(4-ethyl-3-(hydroxymethyl)-5-oxo-4,5-dihydro-1H-1,2,4-triazol-1-yl)-6-fluoro-1-isopropyl-2,3-dihydroquinazolin-4(1H)-one]	3.39	3	–
C=C(C1CN(c2c(F)cccc2Cl)C(=O)c2ccc(-n3nc(CO)n(CC)c3=O)cc21)C(F)(F)F (racemic) [Example 73, Racemic 2-(2-Chloro-6-fluorophenyl)-6-(4-ethyl-3-(hydroxymethyl)-5-oxo-4,5-dihydro-1H-1,2,4-triazol-1-yl)-4-(3,3,3-trifluoroprop-1-en-2-yl)-3,4-dihydroisoquinolin-1(2H)-one]	12.2	8	–
CCn1c(CO)nn(-c2nc3c(cc2F)C(=O)N(c2c(F)cccc2Cl)CN3[C@@H](C)C2OCCCO2)c1=O [Example 23, (S)-1-(1-(1,3-Dioxan-2-yl)ethyl)-3-(2-chloro-6-fluorophenyl)-7-(4-ethyl-3-(hydroxymethyl)-5-oxo-4,5-dihydro-1H-1,2,4-triazol-1-yl)-6-fluoro-2,3-dihydropyrido[2,3-d]pyrimidin-4(1H)-one]	6.64	3	–
CCn1c(CO)nn(-c2ccc3c(c2)C(C(C)C)CN(c2cccc(F)c2)C3=O)c1=O (racemic) [Example 10, Racemic-6-(4-Ethyl-3-(hydroxymethyl)-5-oxo-4,5-dihydro-1H-1,2,4-triazol-1-yl)-2-(3-fluorophenyl)-4-isopropyl-3,4-dihydroisoquinolin-1(2H)-one]	> 3	190	–
CCC[C@H](C)N1CN(c2c(F)cccc2Cl)C(=O)c2cc(F)c(-n3nc(CO)n(CC)c3=O)nc21 [Example 24, (S)-3-(2-Chloro-6-fluorophenyl)-7-(4-ethyl-3-(hydroxymethyl)-5-oxo-4,5-dihydro-1H-1,2,4-triazol-1-yl)-6-fluoro-1-(pentan-2-yl)-2,3-dihydropyrido[2,3-d]pyrimidin-4(1H)-one]	< 1.69	0.4	–
CCn1c(CO)nn(-c2cc3c(cc2F)C(=O)N(c2c(F)cncc2Cl)CN3C(C)C)c1=O [Example 29, 3-(3-Chloro-5-fluoropyridin-4-yl)-7-(4-ethyl-3-(hydroxymethyl)-5-oxo-4,5-dihydro-1H-1,2,4-triazol-1-yl)-6-fluoro-1-isopropyl-2,3-dihydroquinazolin-4(1H)-one]	27.3	20	–
C=C(C)[C@H]1CN(c2c(C)ccnc2OC)C(=O)c2cc(F)c(-n3nc(CO)n(CC)c3=O)cc21 (single isomer, unassigned; atropisomer 1) [Example 52, Atropisomer 1, (R *)-6-(4-Ethyl-3-(hydroxymethyl)-5-oxo-4,5-dihydro-1H-1,2,4-triazol-1-yl)-7-fluoro-2-(2-methoxy-4-methylpyridin-3-yl)-4-(prop-1-en-2-yl)-3,4-dihydroisoquinol in-1 (2H)-one]	–	–	105
CCn1c(CO)nn(-c2cc3c(cc2F)C(=O)N(c2c(F)cccc2Cl)CN3C(C)C)c1=O [Example 1, 3-(2-Chloro-6-fluorophenyl)-7-(4-ethyl-3-(hydroxymethyl)-5-oxo-4,5-dihydro-1H-1,2,4-triazol-1-yl)-6-fluoro-1-isopropyl-2,3-dihydroquinazolin-4(1H)-one]	0.85	–	–
C=C(C)C1CN(c2c(C)ccnc2Cl)C(=O)c2cc(F)c(-n3nc(CO)n(CC)c3=O)cc21 (single isomer, unassigned) [Example 46, (S*)-2-(2-Chloro-4-methylpyridin-3-yl)-6-(4-ethyl-3-(hydroxymethyl)-5-oxo-4,5-dihydro-1H-1,2,4-triazol-1-yl)-7-fluoro-4-(prop-1-en-2-yl)-3,4-dihydroisoquinolin-1(2H)-one]	–	–	5.46
CCn1c(CO)nn(-c2ccc3c(c2)C(C(C)C(F)(F)F)CN(c2c(F)cccc2Cl)C3=O)c1=O (centres unmarked) [Example 75, 2-(2-Chloro-6-fluorophenyl)-6-(4-ethyl-3-(hydroxymethyl)-5-oxo-4,5-dihydro-1H-1,2,4-triazol-1-yl)-4-(1,1,1-trifluoropropan-2-yl)-3,4-dihydroisoquinolin-1(2H)-one]	16.1	–	–
C=C(C)[C@H]1CN(c2c(C)ccnc2OC)C(=O)c2cc(F)c(-n3nc(CO)n(CC)c3=O)cc21 (single isomer, unassigned; atropisomer 2) [Example 53, Atropisomer 2, (R*)-6-(4-Ethyl-3-(hydroxymethyl)-5-oxo-4,5-dihydro-1H-1,2,4-triazol-1-yl)-7-fluoro-2-(2-methoxy-4-methylpyridin-3-yl)-4-(prop-1-en-2-yl)-3,4-dihydroisoquinolin-1(2H)-one]	–	–	3.36
C=C(C)C1CN(c2c(C)ccnc2Cl)C(=O)c2cc(F)c(-n3nc(CO)n(CC)c3=O)cc21 (single isomer, unassigned) [Example 47, (R *)-2-(2-Chloro-4-methylpyridin-3-yl)-6-(4-ethyl-3-(hydroxymethyl)-5-oxo-4,5-dihydro-1H-1,2,4-triazol-1-yl)-7-fluoro-4-(prop-1-en-2-yl)-3,4-dihydroisoquinolin-1 (2H)-one]	–	–	298
CCn1c(CO)nn(-c2ccc3c(c2)C(C(C)C(F)(F)F)CN(c2ccccc2F)C3=O)c1=O (centres unmarked) [Example 74, 6-(4-Ethyl-3-(hydroxymethyl)-5-oxo-4,5-dihydro-1H-1,2,4-triazol-1-yl)-2-(2-fluorophenyl)-4-(1,1,1-trifluoropropan-2-yl)-3,4-dihydroisoquinolin-1(2H)-one]	102	–	–
C=C(C)[C@H]1CN(c2c(C)cnc(OC)c2Cl)C(=O)c2cc(F)c(-n3nc(CO)n(CC)c3=O)cc21 (single isomer, unassigned; atropisomer 2) [Example 65, Atropisomer 2, (R*)-2-(3-Chloro-2-methoxy-5-methylpyridin-4-yl)-6-(4-ethyl-3-(hydroxymethyl)-5-oxo-4,5-dihydro-1H-1,2,4-triazol-1-yl)-7-fluoro-4-(prop-1-en-2-yl)-3,4-dihydroisoquinolin-1(2H)-one]	–	–	20.7
